Laboratory results taken from US20230146870A1, “METHOD TO QUANTIFY AFFINITY AND SELECTIVITY OF SMALL MOLECULES FOR PROTEINS IN LIVING CELLS” (Ohio State Innovation Foundation, priority 2021, published 2023).

Legend:
[1] = biological target: crosslinked / purified microtubules; details: previously reported, cited from earlier work; for Kd: read-out: biochemical Kd for microtubules; for Ki: read-out: biochemical Ki for microtubules
[2] = system: microtubules in living HeLa cells; experiment: Allosteric modulator assay with PB-GABA-Taxol in living HeLa cells (cellular Kb, α); details: PB-GABA-Taxol 1.5 μM, verapamil 100 μM, 3 h, 37° C.; for Kb: read-out: cellular Kb (allosteric modulator)
Text: In this model, two compounds that engage tubulin at different binding sites influence the binding of each other through cooperativity. […] Smaller cooperativity factors (α) represent stronger effects on binding of the orthosteric probe. For these allosteric modulators, the apparent cellular affinity was defined as Kb, and the mathematical relationship between Kb and α is provided (equation 3).
The experimental method for allosteric binding assays was identical to the competition binding assays described previously. However, because it is inaccurate to describe an allosteric modulator with a competitive inhibitory constant (Ki), we used an allosteric modulator model (Kb) for data analysis. […] The observed occupancy of the orthosteric ligand is defined as KApp and is determined by the equilibrium dissociation constant of the orthosteric ligand (Kd), the concentration of allosteric ligand, its affinity for the receptor (Kb), and the strength by which the allosteric ligand affects receptor binding to the orthosteric ligand as defined by the cooperativity factor (a).

mouse PKCβI-mVenus [3] = biological target: T1, mouse PKCβI-mVenus (Mus musculus, UniProt P68404); experiment: Apparent cellular Kd by flow cytometry, HEK293 cells overexpressing PKCβI-mVenus (Example 2); type: binding
T1 construct: eight plasmids encoding full length mouse PKC isozymes fused to; expressed in transfected cells; host or cells: HEK293
T1 sequence (P68404 whole entry, the tested form may be a part): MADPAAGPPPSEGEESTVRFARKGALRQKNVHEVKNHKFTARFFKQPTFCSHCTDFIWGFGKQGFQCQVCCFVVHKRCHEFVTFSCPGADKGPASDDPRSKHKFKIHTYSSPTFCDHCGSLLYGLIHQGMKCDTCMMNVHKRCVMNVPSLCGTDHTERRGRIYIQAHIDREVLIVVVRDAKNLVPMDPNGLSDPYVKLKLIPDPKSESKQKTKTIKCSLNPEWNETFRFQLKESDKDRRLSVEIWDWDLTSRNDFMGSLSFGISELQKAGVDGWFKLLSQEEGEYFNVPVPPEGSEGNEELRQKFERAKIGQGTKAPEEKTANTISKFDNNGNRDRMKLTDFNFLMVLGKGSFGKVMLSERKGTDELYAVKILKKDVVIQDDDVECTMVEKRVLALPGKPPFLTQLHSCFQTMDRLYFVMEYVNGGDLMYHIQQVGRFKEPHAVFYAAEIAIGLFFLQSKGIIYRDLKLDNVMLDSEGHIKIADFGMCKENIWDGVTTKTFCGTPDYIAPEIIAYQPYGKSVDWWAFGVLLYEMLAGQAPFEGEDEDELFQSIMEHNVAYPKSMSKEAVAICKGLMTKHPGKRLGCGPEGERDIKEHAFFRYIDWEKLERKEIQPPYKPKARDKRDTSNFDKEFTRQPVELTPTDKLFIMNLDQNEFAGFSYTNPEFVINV
Experimental: The apparent Kd values of these fluorescent probes were measured using different PKC isozymes (e.g., PKCβI, FIGS. 20A-20D). HEK293 cells were transfected to overexpress PKCβ-mVenus and treated with probes in the presence of verapamil (100 μM) as an inhibitor of efflux.

mouse PKCθ-mVenus = mouse PKCθ-mVenus (Mus musculus, UniProt Q02111); experiment: Fluorescent cellular competition assay with probe 47, PKCθ-mVenus; type: binding; set-up: eight plasmids encoding full length mouse PKC isozymes fused to; expressed in transfected cells; host or cells: HEK293 (transient)
Chain of mouse PKCθ-mVenus (Q02111 whole entry, the tested form may be a part): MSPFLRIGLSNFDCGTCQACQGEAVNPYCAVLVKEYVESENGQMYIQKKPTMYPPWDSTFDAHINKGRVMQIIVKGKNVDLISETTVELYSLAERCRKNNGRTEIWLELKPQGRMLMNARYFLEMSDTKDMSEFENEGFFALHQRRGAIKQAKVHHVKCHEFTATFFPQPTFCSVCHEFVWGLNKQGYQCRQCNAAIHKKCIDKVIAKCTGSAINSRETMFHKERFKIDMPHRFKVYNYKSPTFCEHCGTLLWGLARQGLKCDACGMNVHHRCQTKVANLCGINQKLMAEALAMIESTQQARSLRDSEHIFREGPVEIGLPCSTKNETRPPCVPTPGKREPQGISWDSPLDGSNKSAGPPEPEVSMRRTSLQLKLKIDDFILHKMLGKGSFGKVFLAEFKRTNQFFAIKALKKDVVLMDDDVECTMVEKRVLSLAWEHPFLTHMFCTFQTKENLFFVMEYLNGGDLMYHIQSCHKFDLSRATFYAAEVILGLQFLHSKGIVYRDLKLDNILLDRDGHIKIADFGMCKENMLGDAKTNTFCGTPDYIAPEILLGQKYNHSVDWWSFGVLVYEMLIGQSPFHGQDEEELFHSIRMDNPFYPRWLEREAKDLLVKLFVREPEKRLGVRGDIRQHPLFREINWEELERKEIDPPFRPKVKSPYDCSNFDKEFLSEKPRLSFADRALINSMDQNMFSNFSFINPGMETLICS
Text: (§1) Labeled compounds (tracers) can be used to measure dissociation constants (Kd) and evaluate how tightly different compounds bind to a target protein. However, labeled ligands are not always readily accessible and labels such as fluorophores on small molecules can affect affinities compared to unlabeled compounds. As an alternative, competitive binding assays are widely used to quantify the affinity of small molecules for target proteins. This approach can measure binding by varying the concentration of an unlabeled ligand in the presence of a fixed concentration of a tracer of interest (FIG. 24). The feasibility of this approach for quantification of cellular Ki values using probe 47 was validated with PMA as shown in Table 1.
(§2) HEK293 cells were transfected with different plasmids encoding fluorescent PKC isoforms.

mouse PKCε-mVenus = biological target: T2, mouse PKCε-mVenus (Mus musculus, UniProt P16054); experiment: Fluorescent cellular competition assay with probe 47, PKCε-mVenus; type: binding; set-up: eight plasmids encoding full length mouse PKC isozymes fused to; expressed in transfected cells; host or cells: HEK293
T2 sequence (P16054 1-737): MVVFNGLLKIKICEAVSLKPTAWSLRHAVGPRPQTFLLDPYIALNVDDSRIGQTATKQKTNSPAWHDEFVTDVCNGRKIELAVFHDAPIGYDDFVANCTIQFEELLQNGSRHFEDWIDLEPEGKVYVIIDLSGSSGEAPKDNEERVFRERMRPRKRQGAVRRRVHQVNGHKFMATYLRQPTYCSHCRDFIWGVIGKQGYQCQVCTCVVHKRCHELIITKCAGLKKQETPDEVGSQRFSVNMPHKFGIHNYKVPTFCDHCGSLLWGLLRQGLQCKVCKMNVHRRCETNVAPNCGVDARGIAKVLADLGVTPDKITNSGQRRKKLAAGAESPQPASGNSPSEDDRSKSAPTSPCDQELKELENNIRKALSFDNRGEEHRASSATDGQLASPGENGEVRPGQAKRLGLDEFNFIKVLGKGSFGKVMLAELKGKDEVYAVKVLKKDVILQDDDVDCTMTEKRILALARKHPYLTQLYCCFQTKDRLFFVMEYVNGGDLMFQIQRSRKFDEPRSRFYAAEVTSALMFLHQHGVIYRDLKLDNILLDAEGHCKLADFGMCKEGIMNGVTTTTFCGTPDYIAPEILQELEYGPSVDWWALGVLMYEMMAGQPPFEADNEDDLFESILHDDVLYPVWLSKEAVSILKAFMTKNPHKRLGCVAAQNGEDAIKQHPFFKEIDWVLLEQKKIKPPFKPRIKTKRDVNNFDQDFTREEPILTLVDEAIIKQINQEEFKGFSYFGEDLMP
Text: as §1, §2

mouse PKCβI-mVenus [4] = biological target: T1, mouse PKCβI-mVenus; experiment: Fluorescent cellular competition assay with probe 47, PKCβI-mVenus; type: binding
Text: as §1, §2

mouse PKCγ-mVenus = mouse PKCγ-mVenus (Mus musculus, UniProt P63318); experiment: Fluorescent cellular competition assay with probe 47, PKCγ-mVenus; type: binding; set-up: eight plasmids encoding full length mouse PKC isozymes fused to; expressed in transfected cells; host or cells: HEK293
Text: as §1, §2

mouse PKCη-mVenus = mouse PKCη-mVenus (Mus musculus, UniProt P23298); experiment: Fluorescent cellular competition assay with probe 47, PKCη-mVenus; type: binding; set-up: eight plasmids encoding full length mouse PKC isozymes fused to; expressed in transfected cells; host or cells: HEK293
Chain of mouse PKCη-mVenus (P23298 whole entry, the tested form may be a part): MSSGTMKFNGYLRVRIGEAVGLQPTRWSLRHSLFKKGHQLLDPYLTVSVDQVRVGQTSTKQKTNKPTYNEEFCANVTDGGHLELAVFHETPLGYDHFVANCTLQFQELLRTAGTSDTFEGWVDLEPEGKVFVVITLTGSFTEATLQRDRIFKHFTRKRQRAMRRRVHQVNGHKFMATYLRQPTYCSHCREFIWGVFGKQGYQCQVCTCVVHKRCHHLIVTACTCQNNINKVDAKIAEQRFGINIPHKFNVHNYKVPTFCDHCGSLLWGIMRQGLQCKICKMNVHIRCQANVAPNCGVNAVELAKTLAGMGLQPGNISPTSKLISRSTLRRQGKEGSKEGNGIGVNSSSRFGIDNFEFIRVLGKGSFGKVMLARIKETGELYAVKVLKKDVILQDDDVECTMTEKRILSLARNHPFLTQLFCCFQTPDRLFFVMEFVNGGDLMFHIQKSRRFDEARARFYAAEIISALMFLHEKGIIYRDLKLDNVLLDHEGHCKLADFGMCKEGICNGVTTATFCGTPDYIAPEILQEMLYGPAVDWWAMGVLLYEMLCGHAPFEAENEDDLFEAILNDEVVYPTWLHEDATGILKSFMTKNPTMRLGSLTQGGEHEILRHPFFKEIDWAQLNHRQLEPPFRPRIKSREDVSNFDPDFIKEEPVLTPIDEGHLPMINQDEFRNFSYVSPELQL
Text: as §1, §2

mouse PKCδ-mVenus = mouse PKCδ-mVenus (Mus musculus, UniProt P28867); experiment: Fluorescent cellular competition assay with probe 47, PKCδ-mVenus; type: binding; set-up: eight plasmids encoding full length mouse PKC isozymes fused to; expressed in transfected cells; host or cells: HEK293
Chain of mouse PKCδ-mVenus (P28867 whole entry, the tested form may be a part): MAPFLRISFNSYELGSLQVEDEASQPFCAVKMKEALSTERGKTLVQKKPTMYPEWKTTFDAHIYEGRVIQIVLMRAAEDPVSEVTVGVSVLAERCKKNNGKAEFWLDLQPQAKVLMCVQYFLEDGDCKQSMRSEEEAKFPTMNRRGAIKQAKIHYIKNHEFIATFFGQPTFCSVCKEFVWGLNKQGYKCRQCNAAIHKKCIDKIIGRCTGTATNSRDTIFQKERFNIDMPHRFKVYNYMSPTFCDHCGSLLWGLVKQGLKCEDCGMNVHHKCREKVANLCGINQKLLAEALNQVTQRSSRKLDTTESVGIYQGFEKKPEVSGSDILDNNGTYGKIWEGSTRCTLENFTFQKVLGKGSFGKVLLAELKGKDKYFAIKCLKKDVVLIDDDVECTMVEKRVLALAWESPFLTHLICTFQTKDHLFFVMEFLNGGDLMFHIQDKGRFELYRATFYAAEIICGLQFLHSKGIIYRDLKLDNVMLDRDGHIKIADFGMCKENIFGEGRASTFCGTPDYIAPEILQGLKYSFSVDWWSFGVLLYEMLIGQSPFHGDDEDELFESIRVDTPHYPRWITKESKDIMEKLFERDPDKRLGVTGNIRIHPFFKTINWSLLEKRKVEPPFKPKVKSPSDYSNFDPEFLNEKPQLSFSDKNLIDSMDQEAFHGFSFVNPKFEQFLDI
Text: as §1, §2

mouse PKCα-mVenus = mouse PKCα-mVenus (Mus musculus, UniProt P20444); experiment: Fluorescent cellular competition assay with probe 47, PKCα-mVenus; type: binding; set-up: eight plasmids encoding full length mouse PKC isozymes fused to; expressed in transfected cells; host or cells: HEK293
Text: as §1, §2

[5] = system: microtubules (taxane binding site) in living HeLa cells; experiment: Competition binding assay with PB-GABA-Taxol in living HeLa cells (cellular Ki); details: read-out: cellular Ki; PB-GABA-Taxol 1.5 μM, verapamil 100 μM, 37° C., 4% FBS, 3 h
Experimental: In this assay the cellular Kd was measured by varying the concentration of the fluorescent probe added to cells at equilibrium as established by kinetic assays of probe uptake. Total binding of this probe to specific and non-specific sites in cells in the presence of the efflux inhibitor verapamil was determined by flow cytometry. Non-specific binding was quantified separately by addition of excess paclitaxel with the probe under the same conditions. Subtraction of the linear non-specific binding contribution from the total binding curve was used analyze specific binding of the probe to tubulin of microtubules. Measurement of this cellular dissociation constant under equilibrium conditions further allowed conversion of the half-maximal inhibitory concentration (IC50) of unlabeled compounds into cellular inhibitory constants using an adaptation of the Cheng-Prusoff equation^44 for competitive modulators (Ki) or the allosteric equation^45 for non-competitive modulators (Kb and the cooperativity factor α) as implemented by GraphPad Prism.

C1A-C1A-EYFP (PKCγ) = biological target: T3, C1A-C1A-EYFP (PKCγ) (UniProt P63319); experiment: Cellular binding by flow cytometry, HEK293 cells expressing C1A-C1A-EYFP (PKCγ)
T3 construct: apparent Kd; other: verapamil 100 μM, 90 min, 37° C., DMEM high glucose, 4% FBS; half time (t1/2) of cellular fluorescence; other: 33 at 5 μM, verapamil 100 μM, room temperature; fused on or other part: EYFP at the C-terminus; the C1A module is present twice in one chain
Text: The dissociation constant can be defined as the ratio of koff divided by kon. This value is also the concentration where the ligand occupies 50% of the receptor.^94 Kd is only meaningful when equilibrium is reached, where the ligand-receptor complex is formed at the same rate as it dissociates into free ligand and receptor (FIG. 15). This binding equilibrium is established when essentially no further change in the amount of bound complex is observed over time. To evaluate the time needed for equilibration, we treated HEK293 cells that overexpress C1A-C1A-EYFP (PKCγ) with 33 (0 and 5 μM) in the presence or absence of verapamil (100 μM) and cellular fluorescence was measured by flow cytometry as a function of time (FIG. 18A). […] This optimization was used to establish a 90 min equilibration period for further assay optimization.
The presence of fetal bovine serum (FBS) in the culture media also influenced the binding by sequestering the free ligand. The assay conditions were finalized using HEK293 cells incubated with the probe in the presence of verapamil for 90 min at 37° C. in DMEM media (high glucose, 4% FBS).

[6] = system: cellular microtubules (HeLa cells); experiment: Pilot screen of NCI Diversity Set VI: inhibition of binding of PB-GABA-Taxol, with dose-response validation; details: 25 μM, 3 h, normalized to DMSO (0%) and paclitaxel 10 μM (100%)

CC[C@]1(O)C[C@@H]2CN(CCc3c([nH]c4ccccc34)[C@@](C(=O)OC)(c3cc4c(cc3OC)N(C)[C@H]3[C@@](O)(C(=O)OC)[C@H](OC(C)=O)[C@]5(CC)C=CCN6CC[C@]43[C@@H]65)C2)C1 [vinblastine]
Kd [1]: 190 to 1000 nM | cooperativity factor α [2]: 0.18 | Kb [2]: 7 nM

CC1=C[C@H]2[C@@]3(O)[C@H](C)[C@@H](O)[C@]4(OC(=O)N(C)CCCCCCCCN(C)C(=O)c5cc6cc(F)c(O)c(F)c6oc5=O)[C@H]([C@@H]3C=C(CO)C[C@]2(O)C1=O)C4(C)C [probe 32, (1aR,1bS,4aR,7aS,7bS,8R,9R,9aS)-4a,7b,9-trihydroxy-3-(hydroxymethyl)-1,1,6,8-tetramethyl-5-oxo-1,1a,1b,4,4a,5,7a,7b,8,9-decahydro-9aH-cyclopropa[3,4]benzo[1,2-e]azulen-9a-yl (8-(6,8-difluoro-7-hydroxy-N-methyl-2-oxo-2H-chromene-3-carboxamido)octyl)(methyl)carbamate]
Kd (mouse PKCβI-mVenus [3]): 63000 nM

CCCCCCCCCCCCCC(=O)O[C@@H]1[C@@H](C)[C@@]2(O)[C@@H](C=C(CO)C[C@]3(O)C(=O)C(C)=C[C@@H]23)[C@@H]2C(C)(C)[C@]12OC(C)=O [PMA, 12-O-tetradecanoylphorbol-13-acetate]
Efficacy, PKCθ (mouse PKCθ-mVenus; PMA vs probe 47): 80% | IC50/Ki, PKCθ (mouse PKCθ-mVenus; PMA vs probe 47): 1.4 | IC50 (mouse PKCθ-mVenus; probe 47 4.3 μM, verapamil 25 μM, read-out: IC50 (PMA), PKCθ): 13 nM | Ki (mouse PKCθ-mVenus; probe 47 4.3 μM, verapamil 25 μM, read-out: Ki (PMA), PKCθ): 10 nM | Efficacy, PKCε (mouse PKCε-mVenus; PMA vs probe 47): 81% | IC50/Ki, PKCε (mouse PKCε-mVenus; PMA vs probe 47): 1.4 | IC50 (mouse PKCε-mVenus; probe 47 2.9 μM, verapamil 25 μM, read-out: IC50 (PMA), PKCε): 49 nM | Ki (mouse PKCε-mVenus; probe 47 2.9 μM, verapamil 25 μM, read-out: Ki (PMA), PKCε): 36 nM | Efficacy, PKCβI (mouse PKCβI-mVenus [4]; PMA vs probe 47): 103% | IC50/Ki, PKCβI (mouse PKCβI-mVenus [4]; PMA vs probe 47): 2.5 | IC50 (mouse PKCβI-mVenus [4]; probe 47 1.4 μM, verapamil 25 μM, read-out: IC50 (PMA), PKCβI): 15 nM | Ki (mouse PKCβI-mVenus [4]; probe 47 1.4 μM, verapamil 25 μM, read-out: Ki (PMA), PKCβI): 5.7 nM | Efficacy, PKCγ (mouse PKCγ-mVenus; PMA vs probe 47): 97% | IC50/Ki, PKCγ (mouse PKCγ-mVenus; PMA vs probe 47): 2.4 | IC50 (mouse PKCγ-mVenus; probe 47 2.9 μM, verapamil 25 μM, read-out: IC50 (PMA), PKCγ): 12 nM | Ki (mouse PKCγ-mVenus; probe 47 2.9 μM, verapamil 25 μM, read-out: Ki (PMA), PKCγ): 4.9 nM | Efficacy, PKCη (mouse PKCη-mVenus; PMA vs probe 47): 80% | IC50/Ki, PKCη (mouse PKCη-mVenus; PMA vs probe 47): 1.5 | IC50 (mouse PKCη-mVenus; probe 47 4.3 μM, verapamil 25 μM, read-out: IC50 (PMA), PKCη): 32 nM | Ki (mouse PKCη-mVenus; probe 47 4.3 μM, verapamil 25 μM, read-out: Ki (PMA), PKCη): 21 nM | Efficacy, PKCδ (mouse PKCδ-mVenus; PMA vs probe 47): 81% | IC50/Ki, PKCδ (mouse PKCδ-mVenus; PMA vs probe 47): 1.7 | IC50 (mouse PKCδ-mVenus; probe 47 5.8 μM, verapamil 25 μM, read-out: IC50 (PMA), PKCδ): 39 nM | Ki (mouse PKCδ-mVenus; probe 47 5.8 μM, verapamil 25 μM, read-out: Ki (PMA), PKCδ): 23 nM | Efficacy, PKCα (mouse PKCα-mVenus; PMA vs probe 47): 95% | IC50/Ki, PKCα (mouse PKCα-mVenus; PMA vs probe 47): 1.9 | IC50 (mouse PKCα-mVenus; probe 47 1.4 μM, verapamil 25 μM, read-out: IC50 (PMA), PKCα): 14 nM | Ki (mouse PKCα-mVenus; probe 47 1.4 μM, verapamil 25 μM, read-out: Ki (PMA), PKCα): 7.5 nM

CC(=O)O[C@@]12CO[C@@H]1C[C@H](O)[C@@]1(C)C(=O)[C@H](O)C3=C(C)[C@@H](OC(=O)[C@H](O)[C@@H](NC(=O)OC(C)(C)C)c4ccccc4)C[C@@](O)([C@@H](OC(=O)c4ccccc4)[C@H]21)C3(C)C [docetaxel]
Ki [1]: 17 ± 6 nM | Ki [5]: 16 nM

C#CCN(CCCCCCCCCCCCNC(=O)c1cc2cc(F)c(O)c(F)c2oc1=O)C(=O)O[C@@]12[C@H](O)[C@@H](C)[C@@]3(O)[C@@H](C=C(CO)C[C@]4(O)C(=O)C(C)=C[C@@H]34)[C@@H]1C2(C)C [probe 48, (1aR,1bS,4aR,7aS,7bS,8R,9R,9aS)-4a,7b,9-trihydroxy-3-(hydroxymethyl)-1,1,6,8-tetramethyl-5-oxo-1,1a,1b,4,4a,5,7a,7b,8,9-decahydro-9aH-cyclopropa[3,4]benzo[1,2-e]azulen-9a-yl (12-(6,8-difluoro-7-hydroxy-2-oxo-2H-chromene-3-carboxamido)dodecyl)(prop-2-yn-1-yl)carbamate]
affinity relative to 33 (C1A-C1A-EYFP (PKCγ)): ~2 fold | Kd (C1A-C1A-EYFP (PKCγ); verapamil 100 μM, 90 min, 37° C., DMEM high glucose, 4% FBS, read-out: apparent Kd): 2000 nM

CC(=O)O[C@H]1C(=O)[C@@]2(C)[C@H]([C@H](OC(=O)c3ccccc3)[C@]3(O)C[C@H](O)C(C)=C1C3(C)C)[C@]1(OC(C)=O)CO[C@@H]1C[C@@H]2O [baccatin III]
inhibition of binding of PB-GABA-Taxol to cellular microtubules [6]: 28% | Kd [1]: 6700 ± 2000 nM | Ki [5]: 17000 ± 3000 nM

COc1cc2cc(c1Cl)N(C)C(=O)C[C@H](OC(=O)[C@H](C)N(C)C(C)=O)[C@]1(C)O[C@H]1[C@H](C)[C@@H]1C[C@@](O)(NC(=O)O1)[C@H](OC)/C=C/C=C(\C)C2 [maytansine]
cooperativity factor α [2]: 0.21 | Kb [2]: 3 nM

CO[C@H]1C(=O)[C@]2(C)[C@@H](OC)C[C@H]3OC[C@@]3(OC(C)=O)[C@H]2[C@H](OC(=O)c2ccccc2)[C@]2(O)C[C@H](OC(=O)[C@H](O)[C@@H](NC(=O)OC(C)(C)C)c3ccccc3)C(C)=C1C2(C)C [cabazitaxel]
Ki [1]: 7.4 ± 0.9 nM | Ki [5]: 6 nM
